Counter-ions that a name gives are not always drawn. Residues, ends and D or L forms follow the SMILES beside them. *: point of attachment. Hydrocinnamoyl = O=C(CCc1ccccc1)*; pNA = O=[N+]([O-])c1ccc(N*)cc1; Bz = O=C(c1ccccc1)*
Legend:
Assay type in all cases: biochemical
trypsin [1] = target: T1, trypsin (Bos taurus, UniProt P00760); assay: Splitting by trypsin with liberation of pNA
T1 sequence (P00760 24-246): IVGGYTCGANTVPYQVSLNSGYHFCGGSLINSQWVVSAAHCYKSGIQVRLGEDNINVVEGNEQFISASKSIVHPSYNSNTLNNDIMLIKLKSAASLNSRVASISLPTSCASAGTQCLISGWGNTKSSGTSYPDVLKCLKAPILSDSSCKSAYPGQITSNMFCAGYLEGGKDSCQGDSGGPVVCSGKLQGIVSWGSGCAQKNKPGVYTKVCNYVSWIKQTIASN
Method: In a 250 ml three-necked flask 16.0 g (47 mmoles) of Cbo-Arg-OH.HCl, dried over P2 O5 in vacuo, were dissolved in 90 ml of absolute HMPTA in a moisture-free atmosphere at 20° C. To the resulting solution there was first added portionwise a solution of 4.74 g (47 mmoles) of Et3 N in 10 ml of HMPTA and then 16.4 g (100 mmoles) of p-nitrophenylisocyanate (100% excess) at room temperature. The reaction mixture was kept at room temperature for 24 hours, whereupon most of the HMPTA was distilled off in vacuo. The residue was extracted several times with 30% AcOH. The residue was discarded. The combined AcOH extracts were further purified by gel filtration on a "Sephadex G-15" column as described in Example 1, paragraph I (e). […] Elementary analysis and calculation from the empirical formula C20 H25 N6 O5 Cl gave the following values: C = 51.29% (51.67%); H = 5.48% (5.42%); N = 17.92% (18.08%); Cl = 7.50% (7.63%).

plasma kallikrein [2] = target: T2, plasma kallikrein (Homo sapiens, UniProt P03952); assay: Activity of plasma kallikrein measured with the substrates at constant substrate and enzyme concentrations; settings: split product
T2 sequence (P03952 391-638 limits assumed, species assumed): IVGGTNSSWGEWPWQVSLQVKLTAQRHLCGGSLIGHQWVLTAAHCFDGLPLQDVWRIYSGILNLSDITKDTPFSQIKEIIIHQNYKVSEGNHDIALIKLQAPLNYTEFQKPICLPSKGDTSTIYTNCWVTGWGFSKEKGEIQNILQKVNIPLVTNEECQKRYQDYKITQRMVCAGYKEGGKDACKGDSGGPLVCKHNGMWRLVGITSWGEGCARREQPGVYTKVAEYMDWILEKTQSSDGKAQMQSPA
T2 sequence (P03952 20-390 partner limits assumed, species assumed): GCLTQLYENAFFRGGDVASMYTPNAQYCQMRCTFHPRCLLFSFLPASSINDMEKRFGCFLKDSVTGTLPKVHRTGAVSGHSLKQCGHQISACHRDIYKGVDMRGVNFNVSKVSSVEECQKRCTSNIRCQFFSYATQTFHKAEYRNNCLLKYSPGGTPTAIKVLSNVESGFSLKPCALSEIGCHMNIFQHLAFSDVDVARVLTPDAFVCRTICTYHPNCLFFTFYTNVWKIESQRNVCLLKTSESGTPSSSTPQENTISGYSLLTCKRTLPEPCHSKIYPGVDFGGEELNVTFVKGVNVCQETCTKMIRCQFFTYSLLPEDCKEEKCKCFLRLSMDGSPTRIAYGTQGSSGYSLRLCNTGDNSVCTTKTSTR
Method: (§1) HCl, were used for the quantitative determination of various enzymes in blood plasma. The determination was carried out by taking advantage of the fact that the split product NH2 -R^2 formed by enzymatic hydrolysis of the substrate has a UV spectrum which differs from that of the substrate and is shifted toward higher wave lengths. Thus, N^α-Bz-Pro-Phe-Arg-pNA^.
(§2) The degree of the enzymatic hydrolysis of the substrate, which is proportional to the quantity of p-nitroaniline formed, can be easily determined by spectrophotometric measurement at 405 nm. […] The conditions are practically the same for the other substrates carrying a p-nitroanilino group as a chromogenic group. The spectrophotometric measurement was, therefore, carried out in all cases at 405 nm.

plasmin [3] = target: T3, plasmin (Homo sapiens, UniProt P00747); assay: Activity of human plasmin measured with the substrates at constant substrate and enzyme concentrations; settings: split product
T3 sequence (P00747 581-810 limits assumed): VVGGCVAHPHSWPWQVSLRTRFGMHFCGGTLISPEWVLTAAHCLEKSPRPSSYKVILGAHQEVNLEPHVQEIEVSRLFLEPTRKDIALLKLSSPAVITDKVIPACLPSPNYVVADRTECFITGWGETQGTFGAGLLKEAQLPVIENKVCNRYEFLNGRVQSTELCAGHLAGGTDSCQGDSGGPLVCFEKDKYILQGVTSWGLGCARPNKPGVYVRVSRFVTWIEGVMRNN
T3 sequence (P00747 97-580 partner limits assumed): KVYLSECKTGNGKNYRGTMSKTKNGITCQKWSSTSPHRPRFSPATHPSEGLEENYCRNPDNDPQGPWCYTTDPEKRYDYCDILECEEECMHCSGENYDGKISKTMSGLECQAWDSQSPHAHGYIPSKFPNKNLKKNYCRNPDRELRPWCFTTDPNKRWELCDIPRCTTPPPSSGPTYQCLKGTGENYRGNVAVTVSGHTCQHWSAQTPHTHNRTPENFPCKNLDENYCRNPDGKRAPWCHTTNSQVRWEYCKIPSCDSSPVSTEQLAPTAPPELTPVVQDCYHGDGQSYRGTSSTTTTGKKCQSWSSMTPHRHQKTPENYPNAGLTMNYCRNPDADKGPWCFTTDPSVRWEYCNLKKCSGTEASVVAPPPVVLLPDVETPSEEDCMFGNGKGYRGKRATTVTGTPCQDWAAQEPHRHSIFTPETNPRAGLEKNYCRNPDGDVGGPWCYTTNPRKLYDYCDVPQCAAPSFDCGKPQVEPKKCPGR
Method: as §1, §2

papain = target: T4, papain (Carica papaya, UniProt P00784); assay: Activity of papain measured with substrates at a constant substrate concentration
T4 construct: from tissue; host or cells: latex of the Carica papaya fruit
T4 sequence (P00784 134-345): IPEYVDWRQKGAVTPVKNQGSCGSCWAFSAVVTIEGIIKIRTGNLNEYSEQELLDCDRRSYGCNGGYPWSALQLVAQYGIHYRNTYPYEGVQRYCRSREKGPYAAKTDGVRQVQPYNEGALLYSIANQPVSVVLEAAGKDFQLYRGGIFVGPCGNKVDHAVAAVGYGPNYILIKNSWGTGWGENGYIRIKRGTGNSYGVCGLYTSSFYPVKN
Description: (§3) The degree of the enzymatic hydrolysis of the substrate, which is proportional to the quantity of p-nitroaniline formed, can be easily determined by spectrophotometric measurement at 405 nm. The presence of an excess of substrate exerts no disturbing effect on the measurement at 405 nm. The conditions are practically the same for the other substrates carrying a p-nitroanilino group as a chromogenic group. The spectrophotometric measurement was, therefore, carried out in all cases at 405 nm.
(§4) Activity of papain and prothrombin activator, measured by means
(§5) Quantity in nm of p-nitroaniline (pNA) re-
(§6) leased within 1 minute by 0.1 milli-Anson
(§7) unit^3) of papain and 10 μg of a pure fraction
^1) Papain is a cysteine-protease isolated from the latex of the gree
^3) One Anson unit is the enzyme quantity which releases 1 mmole of
folin-positive amino acids (calculated as tyrosine) in 1 minute (cf. Art.

plasma kallikrein [4] = target: T2, plasma kallikrein; assay: Km and vmax determination with substrate (Lineweaver-Burk), plasma kallikrein; settings: common units per 1 substrate unit
Method: (§8) As is evident from equation (2) constants Km and k3 determine the activity of the enzyme substrate for a given enzyme. For determining these constants the following procedure is followed:
(§9) The enzyme and the substrate are mixed in a buffer solution, and the reaction is followed spectrophotometrically for 2 to 30 minutes. The concentration of substrate [S] is varied, whereas the enzyme concentration [E] is kept constant. If the extinction (OD) (= optical density) is plotted in a co-ordinate system as a function of time, a curve is obtained the tangent of which (difference in extinction per minute, Δ OD/minute, from which the quantity in μmoles of pNA/min (v) can be calculated) at time zero corresponds to the ideal course of the hydrolysis. By means of this tangent the initial rate of the hydrolysis can be determined.
(§10) If 1/v is plotted against 1/[S], a Lineweaver-Burk diagram (cf. "Kurzes Lehrbuch der Biochemie" by P. KARSON, Georg Thieme-Verlag, Stuttgart, 1967, p. 70) is obtained from which vmax and Km can be determined graphically.
(§11) Km and k3 = vmax /E were determined with N^α-Bz-Pro-Phe-Arg-pNA^. HCl (i.e. the substrate prepared according to Example 1) for plasma kallikrein, trypsin, plasmin and thrombin.

plasmin [5] = target: T3, plasmin; assay: Km and vmax determination with substrate (Lineweaver-Burk), plasmin; settings: casein units per 1 substrate unit
Method: as §8, §9, §10, §11

trypsin [6] = target: T1, trypsin; assay: Km and vmax determination with substrate (Lineweaver-Burk), trypsin; settings: NF units per 1 substrate unit
Method: as §8, §9, §10, §11

thrombin = thrombin (Homo sapiens, UniProt P00734); assay: Km and vmax determination with substrate (Lineweaver-Burk), thrombin; settings: NIH units per 1 substrate unit
Method: as §8, §9, §10, §11

[7] = target: T5, prothrombin activator from venom of the snake Echis carinatus (Echis carinatus, UniProt Q90495); assay: Activity of prothrombin activator measured with substrates at a constant substrate concentration
T5 sequence (Q90495 191-616): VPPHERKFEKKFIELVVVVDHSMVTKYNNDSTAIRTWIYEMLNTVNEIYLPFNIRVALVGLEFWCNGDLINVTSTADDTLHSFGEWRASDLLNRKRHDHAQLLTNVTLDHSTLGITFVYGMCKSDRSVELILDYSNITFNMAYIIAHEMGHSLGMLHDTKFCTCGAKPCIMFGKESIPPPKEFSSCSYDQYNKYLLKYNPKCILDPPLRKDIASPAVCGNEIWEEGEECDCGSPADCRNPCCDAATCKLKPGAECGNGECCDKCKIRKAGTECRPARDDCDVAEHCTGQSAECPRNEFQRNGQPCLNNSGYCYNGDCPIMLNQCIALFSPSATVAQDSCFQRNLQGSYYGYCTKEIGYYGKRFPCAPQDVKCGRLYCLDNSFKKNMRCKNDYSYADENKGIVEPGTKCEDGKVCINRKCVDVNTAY
Description: as §3, §4, §5, §6, §7
of the prothrombin activator from venom of
the snake Echis carinatus
^2) The prothrombin activator is a serine-protease which was isolated
from the venom of the snake Echis carinatus.

N=C(N)NCCC[C@H](NC(=O)OCc1ccccc1)C(=O)Nc1ccc([N+](=O)[O-])cc1 [XIIIa, Cbo-Arg-pNA.HCl]
splitting by trypsin (trypsin [1]): split by trypsin with liberation of pNA

N=C(N)NCCC[C@H](NC(=O)[C@H](Cc1ccccc1)NC(=O)[C@@H]1CCCN1C(=O)CCc1ccccc1)C(=O)Nc1ccc([N+](=O)[O-])cc1 [Substrate VII, N^α -3-Phenyl-propionyl-Pro-Phe-Arg-pNA.HCl] (Hydrocinnamoyl-Pro-Phe-Arg-pNA)
Quantity of p-nitroaniline (pNA), β-naphthylamine (2-NA) or 4-methoxy-β-naphthylamine (4-MeO-2-NA) released within 1 minute by 1 BAEE unit of plasma kallikrein (plasma kallikrein [2]): 256.0 nm | Quantity of p-nitroaniline (pNA), β-naphthylamine (2-NA) or 4-methoxy-β-naphthylamine (4-MeO-2-NA) released within 1 minute by one C unit of human plasmin (plasmin [3]): 144.0 nm | Quantity of p-nitroaniline (pNA) released within 1 minute by 0.1 milli-Anson unit of papain (papain): 24.9 nm

N=C(N)NCCC[C@H](NC(=O)[C@H](Cc1ccccc1)NC(=O)[C@@H]1CCCN1C(=O)c1ccccc1)C(=O)Nc1ccc([N+](=O)[O-])cc1 [Substrate I, N^α-Bz-Pro-Phe-Arg-pNA^. HCl] (Bz-Pro-Phe-Arg-pNA)
relation between substrate units and common units (1 U = x) (plasma kallikrein [4]): 4.8 BAEE U | relation between substrate units and common units (1 U = x) (plasmin [5]): 518 C U | relation between substrate units and common units (1 U = x) (trypsin [6]): 12000 NF | relation between substrate units and common units (1 U = x) (thrombin): 117600 NIH | Quantity of p-nitroaniline (pNA), β-naphthylamine (2-NA) or 4-methoxy-β-naphthylamine (4-MeO-2-NA) released within 1 minute by 1 BAEE unit of plasma kallikrein (plasma kallikrein [2]): 135.5 nm | Quantity of p-nitroaniline (pNA), β-naphthylamine (2-NA) or 4-methoxy-β-naphthylamine (4-MeO-2-NA) released within 1 minute by one C unit of human plasmin (plasmin [3]): 152.0 nm | Quantity of p-nitroaniline (pNA) released within 1 minute by 10 μg of a pure fraction of the prothrombin activator from venom of Echis carinatus [7]: 13.1 nm
